{
  "source": "paper PMC2701352",
  "about": "(Biochemical pharmacology, 2008)",
  "key": {"hMC4R/TM4 hMC1R": {"biological_target": "hMC4R/TM4 hMC1R (Homo sapiens, UniProt P32245+Q01726)", "sequence (P32245 1-172 limits assumed, other chains not shown)": "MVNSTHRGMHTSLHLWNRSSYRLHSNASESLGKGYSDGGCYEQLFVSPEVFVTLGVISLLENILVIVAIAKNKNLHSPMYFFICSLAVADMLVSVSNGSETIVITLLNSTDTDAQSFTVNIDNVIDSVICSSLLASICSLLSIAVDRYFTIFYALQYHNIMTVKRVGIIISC", "sequence (P32245 188-332 limits assumed, other chains not shown)": "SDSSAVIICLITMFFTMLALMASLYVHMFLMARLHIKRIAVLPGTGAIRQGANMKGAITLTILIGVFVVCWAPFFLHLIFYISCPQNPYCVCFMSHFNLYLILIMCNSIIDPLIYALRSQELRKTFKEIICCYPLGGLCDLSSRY", "assay": "cAMP production, hMC4R/TM4hMC1R chimera"}, "hMC4R/TM5 hMC1R": {"system": "hMC4R/TM5 hMC1R", "assay": "cAMP production, hMC4R/TM5hMC1R chimera", "settings": "Fig. 4B, 4D"}, "hMC4R/TM6 hMC1R": {"biological_target": "hMC4R/TM6 hMC1R (Homo sapiens, UniProt P32245+Q01726)", "sequence (P32245 1-251 limits assumed, other chains not shown)": "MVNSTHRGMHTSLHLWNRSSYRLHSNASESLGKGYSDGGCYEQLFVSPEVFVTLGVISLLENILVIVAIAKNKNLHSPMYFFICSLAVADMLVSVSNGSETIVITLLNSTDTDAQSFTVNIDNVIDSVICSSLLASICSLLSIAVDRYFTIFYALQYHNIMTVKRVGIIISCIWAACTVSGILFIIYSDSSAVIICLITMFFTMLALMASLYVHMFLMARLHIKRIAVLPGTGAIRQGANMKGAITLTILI", "sequence (P32245 271-332 limits assumed, other chains not shown)": "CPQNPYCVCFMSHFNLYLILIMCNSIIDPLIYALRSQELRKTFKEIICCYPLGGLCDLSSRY", "assay": "cAMP production, hMC4R/TM6hMC1R chimera"}, "hMC4R/TM3 hMC1R": {"biological_target": "hMC4R/TM3 hMC1R (Homo sapiens, UniProt P32245+Q01726)", "sequence (P32245 1-121 limits assumed)": "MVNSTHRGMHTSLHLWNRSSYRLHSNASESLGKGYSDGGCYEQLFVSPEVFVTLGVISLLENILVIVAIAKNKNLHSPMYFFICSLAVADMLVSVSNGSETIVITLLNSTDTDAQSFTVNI", "sequence (Q01726 117-137 limits assumed)": "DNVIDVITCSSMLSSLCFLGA", "sequence (P32245 143-332 limits assumed)": "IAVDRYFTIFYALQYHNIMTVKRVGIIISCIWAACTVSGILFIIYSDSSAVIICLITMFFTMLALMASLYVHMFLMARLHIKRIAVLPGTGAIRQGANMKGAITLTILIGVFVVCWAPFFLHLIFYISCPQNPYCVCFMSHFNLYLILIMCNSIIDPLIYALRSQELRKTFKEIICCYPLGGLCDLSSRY", "assay": "cAMP production, hMC4R/TM3hMC1R chimera"}, "hMC4R WT": {"biological_target": "hMC4R WT (Homo sapiens, UniProt P32245)", "sequence (P32245 whole entry)": "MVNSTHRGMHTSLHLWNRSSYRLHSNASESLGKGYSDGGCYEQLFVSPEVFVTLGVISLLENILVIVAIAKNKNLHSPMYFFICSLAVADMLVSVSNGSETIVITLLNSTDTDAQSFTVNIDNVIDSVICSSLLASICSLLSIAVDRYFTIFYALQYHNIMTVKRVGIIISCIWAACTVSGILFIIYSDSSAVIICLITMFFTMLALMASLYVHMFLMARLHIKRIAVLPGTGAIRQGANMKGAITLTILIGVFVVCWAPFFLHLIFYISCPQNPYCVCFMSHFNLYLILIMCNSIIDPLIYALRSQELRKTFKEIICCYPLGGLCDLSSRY", "assay": "cAMP production, hMC4R WT in HEK-293 cells", "assay_type": "cell-based"}, "hMC4R/TM2 hMC1R": {"biological_target": "hMC4R/TM2 hMC1R (Homo sapiens, UniProt P32245, A89S/G98V/I102A/M91L/S85C/S99L/V88L/V95G)", "sequence (P32245 whole entry S85C/V88L/A89S/M91L/V95G/G98V/S99L/I102A)": "as the sequence (P32245 whole entry) above, with S85C, V88L, A89S, M91L, V95G, G98V, S99L, I102A counted along it", "assay": "cAMP production, hMC4R/TM2hMC1R chimera", "assay_type": "cell-based"}, "hMC1R WT": {"biological_target": "hMC1R WT (Homo sapiens, UniProt Q01726)", "sequence (Q01726 whole entry)": "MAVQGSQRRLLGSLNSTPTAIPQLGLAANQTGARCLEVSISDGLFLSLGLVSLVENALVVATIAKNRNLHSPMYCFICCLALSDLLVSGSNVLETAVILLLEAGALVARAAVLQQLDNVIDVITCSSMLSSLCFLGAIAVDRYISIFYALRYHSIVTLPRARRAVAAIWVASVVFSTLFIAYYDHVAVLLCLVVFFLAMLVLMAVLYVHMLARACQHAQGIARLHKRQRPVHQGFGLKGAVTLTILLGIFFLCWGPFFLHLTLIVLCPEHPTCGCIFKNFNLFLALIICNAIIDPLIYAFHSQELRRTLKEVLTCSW", "assay": "cAMP production, hMC1R WT in HEK-293 cells", "assay_type": "cell-based"}},
  "note": "“Also recorded” adds a separate entry of the source.",
  "data": [
    {"smiles": "CCCC[C@H](NC(=O)[C@@H](NC(=O)[C@@H](N)Cc1ccc(O)cc1)C(C)C)C(=O)NCC(=O)N1CCC[C@H]1C(=O)N[C@H](Cc1ccccc1)C(=O)N[C@@H](CCCNC(=N)N)C(=O)N[C@@H](Cc1c[nH]c2ccccc12)C(=O)N[C@@H](CC(=O)O)C(=O)N[C@@H](CCCNC(=N)N)C(=O)N[C@@H](Cc1ccccc1)C(=O)NCC(N)=O", "note": "[[DPhe^6]-γ-MSH, H-Tyr-Val-Nle-Gly-Pro-DPhe-Arg-Trp-Asp-Arg-Phe-Gly-NH2]", "values": [
      {"measurement": "EC50", "setting": "hMC4R/TM4 hMC1R", "value": "3.1 ± 0.3", "unit": "nM"},
      {"measurement": "cAMP potency (in words)", "setting": "hMC4R/TM4 hMC1R; Figs. 3 and 4", "value": "did not significantly alter [DPhe^6]-γ-MSH potency"},
      {"measurement": "cAMP potency (in words)", "setting": "hMC4R/TM5 hMC1R", "value": "did not significantly alter [DPhe^6]-γ-MSH potency"},
      {"measurement": "EC50", "setting": "hMC4R/TM6 hMC1R", "value": "3.2 ± 0.3", "unit": "nM"},
      {"measurement": "cAMP potency (in words)", "setting": "hMC4R/TM6 hMC1R; Fig. 4B, 4D", "value": "did not significantly alter [DPhe^6]-γ-MSH potency"},
      {"measurement": "EC50", "setting": "hMC4R/TM3 hMC1R", "value": "3.3 ± 0.5", "unit": "nM"},
      {"measurement": "cAMP potency (in words)", "setting": "hMC4R/TM3 hMC1R; Fig. 3B, 3D", "value": "did not significantly alter [DPhe^6]-γ-MSH potency"},
      {"measurement": "EC50", "setting": "hMC4R WT", "value": 35, "unit": "nM"},
      {"measurement": "cAMP production, potency and agonism (in words)", "setting": "hMC4R WT; Fig. 2B, 2D", "value": "dose-dependently increased cAMP generation; also recorded: non selective agonist for the MC1R and MC4R"},
      {"measurement": "EC50", "setting": "hMC4R/TM2 hMC1R", "value": "2.9 ± 0.3", "unit": "nM"},
      {"measurement": "cAMP potency (in words)", "setting": "hMC4R/TM2 hMC1R; Fig. 3B, 3D", "value": "did not significantly alter [DPhe^6]-γ-MSH potency"},
      {"measurement": "EC50", "setting": "hMC1R WT", "value": "2.3 ± 0.5", "unit": "nM"},
      {"measurement": "cAMP production, potency and agonism (in words)", "setting": "hMC1R WT; Fig. 2B, 2D", "value": "dose-dependently increased cAMP generation; also recorded: non selective agonist for the MC1R and MC4R"}
    ]}
  ]
}
